ChEMBL document CHEMBL1201862, “PubChem BioAssay data set” (2004)
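A five-concentration, 48-hour dose response in 96-well plates underlies each endpoint, interpolated linearly between surrounding concentrations. GI50 marks 50% less growth.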 Activity calls are given as the source filed them. Rule as the data show it: active = GI50 up to about 1.1 µM and inactive = higher.

How the values were obtained:
Assay in all cases: growth of human tumour cells (NCI), 48 h
[1] = system: SK-MEL-2
[2] = system: NCI-H226
[3] = system: SNB-75
[4] = system: SF-295
[5] = system: SK-MEL-5
[6] = system: OVCAR-3
[7] = system: OVCAR-4
[8] = system: RPMI-8226
[9] = system: ACHN
[10] = system: U-251
[11] = system: A498
[12] = system: OVCAR-8
[13] = system: LOX IMVI
[14] = system: A549
[15] = system: UACC-257
[16] = system: K562
[17] = system: Malme-3M
[18] = system: DMS-273
[19] = system: SF-268
[20] = system: SR
[21] = system: HOP-62
[22] = system: SW-620
[23] = system: HCC 2998
[24] = system: DLD-1
[25] = system: HL-60
[26] = system: M14
[27] = system: SNB-19
[28] = system: SN12C
[29] = system: SK-OV-3
[30] = system: KM12
[31] = system: HCT-15
[32] = system: RXF 631
[33] = system: SK-MEL-28
[34] = system: HT-29
[35] = system: LXFL 529
[36] = system: NCI-H460
[37] = system: OVCAR-5
[38] = system: SF-539
[39] = system: 786-0
[40] = system: NCI-H522
[41] = system: UO-31
[42] = system: IGROV-1
[43] = system: DMS-114
[44] = system: CAKI-1
[45] = system: HCT-116
[46] = system: M19-MEL
[47] = system: MOLT-4
[48] = system: CCRF-CEM
[49] = system: SNB-78
[50] = system: XF498
[51] = system: UACC-62
[52] = system: TK-10
[53] = system: KM-20L2
[54] = system: COLO 205
[55] = system: NCI-H23
[56] = system: HOP-18
[57] = system: EKVX
[58] = system: RXF 393
[59] = system: HOP-92

Measured: GI50

CCN(CC)CCNc1ccc2nc(C)n3c4ccc(O)cc4c(=O)c1c23
0.64 µM: [31]
inactive: [1] 7.24 µM | [5] 2.01 µM | [6] 1.97 µM | [8] 2.16 µM | [11] 2.69 µM | [15] 8.63 µM | [16] 1.48 µM | [17] 3.56 µM | [26] 2.99 µM | [29] 1.14 µM | [30] 3.02 µM | [33] 2.77 µM | [38] 1.79 µM | [41] 1.94 µM | [42] 1.38 µM | [43] 1.42 µM | [44] 1.24 µM | [46] 3.49 µM
active: [2] 0.16 µM | [3] 1.09 µM | [4] 0.462 µM | [7] 0.525 µM | [9] 0.231 µM | [10] 0.745 µM | [12] 0.371 µM | [13] 0.71 µM | [14] 0.179 µM | [18] 0.37 µM | [19] 0.481 µM | [20] 0.049 µM | [21] 0.975 µM | [22] 0.596 µM | [23] 0.552 µM | [24] 0.371 µM | [25] 0.286 µM | [27] 0.546 µM | [28] 0.618 µM | [32] 0.331 µM | [34] 0.246 µM | [35] 0.78 µM | [36] 0.215 µM | [37] 0.479 µM | [39] 0.381 µM | [40] 0.179 µM | [45] 0.357 µM | [47] 0.0447 µM

CC(=O)OCCOCNC(=S)N/N=C(\C)c1cnccn1
inactive: [48] 13 µM | [1] > 100 µM | [2] 28.1 µM | [3] 33.5 µM | [4] 36.3 µM | [5] 15.4 µM | [6] 23.7 µM | [7] > 100 µM | [8] 42.4 µM | [49] > 100 µM | [9] 13.6 µM | [10] 29.6 µM | [11] 58.6 µM | [12] 30.1 µM | [13] 57.1 µM | [14] 24.5 µM | [50] > 100 µM | [15] 43.1 µM | [16] 30.5 µM | [17] 30.2 µM | [18] 24.5 µM | [19] 17.5 µM | [20] 18.4 µM | [21] 27.4 µM | [51] 13.5 µM | [22] 23.9 µM | [23] 29 µM | [24] 34.3 µM | [25] 15.7 µM | [26] 17.1 µM | [52] 28.4 µM | [27] 73.1 µM | [53] 13.2 µM | [28] 29.7 µM | [29] 46.5 µM | [54] 28.1 µM | [30] 43.3 µM | [33] 42.5 µM | [34] 41 µM | [35] 22.9 µM | [36] 20.9 µM | [37] 7.53 µM | [38] 29.8 µM | [55] 58.2 µM | [39] 33.4 µM | [56] 25.4 µM | [40] 25.2 µM | [41] 18.9 µM | [57] 22.3 µM | [42] 26.9 µM | [43] 16.8 µM | [58] 23.2 µM | [45] 34.3 µM | [46] 15.9 µM | [47] 14.1 µM
22.1 µM: [31]

COC(=O)[C@@]12C3=NO[C@]1(C(=O)OC)C(O[Si](C)(C)C(C)(C)C)[C@@H](OC(C)=O)[C@@H](OC(C)=O)[C@@H]2[C@@H](OCc1ccccc1)CC3 (stereo not given in full)
> 30.9 µM: [31]
inactive: [48] 5.45 µM | [1] 8.26 µM | [2] 14.9 µM | [3] 8.63 µM | [4] 5.68 µM | [5] 4.16 µM | [6] 13.5 µM | [7] 4.82 µM | [8] 4.42 µM | [49] > 96.2 µM | [9] 4.44 µM | [10] 8.99 µM | [11] > 85.3 µM | [12] > 61.1 µM | [13] 8.81 µM | [14] 28.3 µM | [50] 15.8 µM | [15] 17.4 µM | [16] 5.26 µM | [17] 7.28 µM | [18] 6.05 µM | [19] 5.79 µM | [21] > 100 µM | [51] > 43.6 µM | [22] > 100 µM | [23] > 100 µM | [24] > 30.5 µM | [25] 3.86 µM | [26] > 100 µM | [52] > 100 µM | [27] 8.81 µM | [59] 2.22 µM | [53] > 100 µM | [28] > 100 µM | [29] > 100 µM | [54] > 100 µM | [30] > 100 µM | [33] > 23.8 µM | [34] > 72.3 µM | [35] 4.45 µM | [36] 3.59 µM | [37] 8.79 µM | [38] > 100 µM | [55] 4.9 µM | [39] 14.2 µM | [56] > 100 µM | [40] 3.86 µM | [41] > 19.9 µM | [57] > 27.7 µM | [42] > 29 µM | [43] 6.35 µM | [44] 3.8 µM | [58] 3.06 µM | [45] 5.07 µM | [46] > 100 µM | [47] 5.14 µM
